The subject of the data set is GENE-TOX genotoxicity assays, various organisms and cells. Nature of the data set: GENE-TOX mutagenicity studies. Conditions: for call: Assay Type: In vivo carcinogenicity studies.
Setting [1] is: Species/Cell Type: Allium cepa, Assay Type: Chromosome aberrations, Assay Code: ALC+, Evaluation Type: Evaluation A (Pre-1980).
Where [2] appears, read: Species/Cell Type: Rodents, Sex: Male, Assay Type: Dominant lethal test, Assay Code: DLT+, Evaluation Type: Evaluation A (Pre-1980).
Where [3] appears, read: Species/Cell Type: Salmonella typhimurium (one or more of the five standard strains: TA98, TA100, TA1535, TA1537, and TA1538), Assay Type: Histidine reverse gene mutation, Ames assay, Assay Code: SALT, Evaluation Type: Evaluation A (Pre-1980).
Where [4] appears, read: Species/Cell Type: Salmonella typhimurium (one or more of the five standard strains: TA98, TA100, TA1535, TA1537, and TA1538), Assay Type: Histidine reverse gene mutation, Ames assay, Assay Code: SAL+, Evaluation Type: Evaluation A (Pre-1980).
[5] abbreviates: Species/Cell Type: Chinese hamster ovary (CHO) cells, Assay Type: Forward gene mutation at the HPRT locus, Assay Code: CHO+, Evaluation Type: Evaluation B (Post-1980).
The mark [6] stands for this setting: Species/Cell Type: Bacillus subtilis (H17 vs M45T), Assay Type: Rec-assay, spot test, DNA effects (bacterial DNA repair), Assay Code: REXT, Evaluation Type: Evaluation A (Pre-1980).
Setting [7] is: Species/Cell Type: Mammalian polychromatic erythrocytes, Assay Type: Micronucleus test, chromosome aberrations, Assay Code: MNT-, Evaluation Type: Evaluation B (Post-1980).
Setting [8] is: Species/Cell Type: Salmonella typhimurium (one or more of the five standard strains: TA98, TA100, TA1535, TA1537, and TA1538), Assay Type: Histidine reverse gene mutation, Ames assay, Assay Code: SAL+*, Activation: With metabolic activation, Evaluation Type: Evaluation A (Pre-1980).

Molecules are shown by their SMILES. Active and inactive are the calls of the source. The rule behind the calls is not given here.

Take `O=C1c2ccccc2C(=O)c2c1ccc(O)c2O`: the mutagenic call is, setting by setting: under setting [1], “active; positive”; (Species/Cell Type: Bacillus subtilis (H17 vs M45), Assay Type: Rec-assay, spot test, DNA effects (bacterial DNA repair), Assay Code: REWT, Evaluation Type: Evaluation A (Pre-1980)) “no conclusion”.
Turning to `CCCCBr`, the mutagenic call (Species/Cell Type: Escherichia coli polA (W3119 vs P3478), Assay Type: Rec-assay, DNA effects (bacterial DNA repair), Assay Code: RE1T, Evaluation Type: Evaluation A (Pre-1980)) is listed as “no conclusion”.
Consider `CCCCCC[C@@H](O)[C@@H]1C2=C(C[C@H]([C@H](O)[C@@H]3CC=CC(=O)O3)CC3=C(C(=O)OC3=O)[C@@H]1O)C(=O)OC2=O`, for which the mutagenic call was “inactive; negative” (Species/Cell Type: Bacillus subtilis (H17 vs M45), Assay Type: Rec-assay, spot test, DNA effects (bacterial DNA repair), Assay Code: REW-, Evaluation Type: Evaluation A (Pre-1980)); “active; positive” under setting [2]; “inactive; negative” (Species/Cell Type: Saccharomyces cerevisiae, Assay Type: Mitotic recombination or gene conversion, Assay Code: YEH-, Evaluation Type: Evaluation A (Pre-1980)); “no conclusion” under setting [3].
With `CC1CC2OC(=O)C(C)C2CC2(C)C(O)OC(O)CC12` (stereo unspecified), the mutagenic call under setting [4] was “active; positive”.
`NC(Cc1ccc(Oc2ccc(N(CCCl)CCCl)cc2)cc1)C(=O)O` (stereo unspecified): the mutagenic call (Species/Cell Type: Drosophila melanogaster, Assay Type: Sex-linked recessive lethal gene mutation, Assay Code: SRL+, Evaluation Type: Evaluation A (Pre-1980)) was “active; positive”.
Regarding `COc1cc(C)c(-c2csc(N(C)C(=O)Nc3ccc(Cl)cc3)n2)cc1OC`, the mutagenic call (Species/Cell Type: Salmonella typhimurium, Assay Type: Forward and reverse gene mutation, host-mediated assay, Assay Code: HMA+, Evaluation Type: Evaluation A (Pre-1980)) is “active; positive”.
Take `C[C@]1(O)CC[C@H]2[C@@H]3CCC4=CC(=O)CC[C@]4(C)[C@@]3(F)[C@@H](O)C[C@@]21C`: where the note is “Species/Cell Type: Human, Sex: Male, Assay Type: Sperm morphology, Assay Code: SPHT, Evaluation Type: Evaluation A (Pre-1980)”, the mutagenic call is listed as “no conclusion”.
As to `Cc1c2occc2cc2c1oc(=O)c1cnccc12`, the mutagenic call (Species/Cell Type: Human, Assay Type: Sister-chromatid exchange (SCE) in vitro, Assay Code: SC1+, Evaluation Type: Evaluation B (Post-1980)) is “active; positive”.
Regarding `Nc1ccc(-c2ccc(N)cc2Cl)c(Cl)c1`, where the note is “Species/Cell Type: Human diploid fibroblasts, Assay Type: Unscheduled DNA synthesis (UDS) in vitro, DNA effects, Assay Code: UDH+*, Activation: With metabolic activation, Evaluation Type: Evaluation A (Pre-1980)”, the mutagenic call is “active; positive”.
Take `Cc1c(N(C)C)c(=O)n(-c2ccccc2)n1C`: the mutagenic call (Species/Cell Type: Nonhuman, Assay Type: Sister-chromatid exchange (SCE) in vitro, Assay Code: SC2-, Evaluation Type: Evaluation A (Pre-1980)) is “inactive; negative”.
`c1ccc2c(C3CO3)c3ccccc3cc2c1` (stereo unspecified): the mutagenic call under setting [4] was “active; positive”.
With `O=C1NCCN1/N=C/c1ccc([N+](=O)[O-])o1`, for the setting “Species/Cell Type: Nonhuman, Assay Code: CCG+, Evaluation Type: Evaluation A (Pre-1980)”, the call is “active; positive”.
Turning to `COc1ccc2nc3cc(Cl)ccc3c(NCCCSCCCl)c2n1`, under setting [5], the mutagenic call was “active; positive”.
Regarding `CS(=O)(=O)OCCCNCCCOS(C)(=O)=O`, under setting [4], the mutagenic call is “active; positive”.
For `COc1cc([C@@H]2c3cc4c(cc3[C@@H](O[C@@H]3O[C@@H]5CO[C@@H](c6cccs6)O[C@H]5[C@H](O)[C@H]3O)[C@H]3COC(=O)[C@H]23)OCO4)cc(OC)c1O`, the mutagenic call is, setting by setting: under setting [5], “active; positive”; (Species/Cell Type: Nonhuman, Assay Type: Sister-chromatid exchange (SCE) in vitro, Assay Code: SC2+, Evaluation Type: Evaluation B (Post-1980)) “active; positive”.
With `O=CCC=O`, under setting [3], the mutagenic call was “no conclusion”.
`C[C@@H](CC[C@H](C)OS(C)(=O)=O)OS(C)(=O)=O`: the mutagenic call under setting [2] was “active; positive”.
In the case of `BrBr`, under setting [1], the mutagenic call is “active; positive”.
As for `O=C1CCCCCN1`, the mutagenic call (Species/Cell Type: Chinese hamster ovary (CHO) cells, Assay Type: Forward gene mutation at the HPRT locus, Assay Code: CHO-, Evaluation Type: Evaluation B (Post-1980)) is “inactive; negative”. Besides, the call (Species/Cell Type: Nonhuman, Assay Code: CCG-, Evaluation Type: Evaluation A (Pre-1980)) is “inactive; negative”.
For the compound `Cc1c(C2(c3cc(Br)c(O)c(Br)c3C)OS(=O)(=O)c3ccccc32)cc(Br)c(O)c1Br`, the mutagenic call is “no conclusion” under setting [6] and “no conclusion” under setting [3].
Consider `c1cncc([C@@H]2CCCCN2)c1`, for which the mutagenic call (Species/Cell Type: Nonhuman, Assay Type: Sister-chromatid exchange (SCE) in vitro, Assay Code: SC2T, Evaluation Type: Evaluation B (Post-1980)) is “no conclusion”.
Turning to `Cc1cc2cc3c(C)cc(=O)oc3c(C)c2o1`, the mutagenic call reads like this: (Species/Cell Type: Human lymphocytes, Assay Type: Sister-chromatid exchange (SCE) in vitro, Assay Code: SCLT, Evaluation Type: Evaluation A (Pre-1980)) “no conclusion”; (Species/Cell Type: Human, Assay Type: Sister-chromatid exchange (SCE) in vitro, Assay Code: SC1T, Evaluation Type: Evaluation A (Pre-1980)) “no conclusion”.
For the compound `Oc1ccc(Cl)cc1Cl`, under setting [3], the mutagenic call is listed as “no conclusion”.
As to `O=C1c2ccccc2NC(c2ccc([N+](=O)[O-])o2)N1O` (stereo unspecified), the mutagenic call under setting [7] was “inactive; negative”.
Take `c1ccc2c(c1)Cc1c(c3ccccc3c3ccccc13)C2`: under setting [8], the mutagenic call was “active; positive”.
As to `CC(=O)c1ccc([N+](=O)[O-])s1`, the mutagenic call under setting [4] is “active; positive”.
As for `ClCc1ccc(-c2ccccc2)cc1`, the mutagenic call was “no conclusion” (Species/Cell Type: Chinese hamster ovary (CHO) cells, Assay Type: Forward gene mutation at the HPRT locus, Assay Code: CHOT, Evaluation Type: Evaluation B (Post-1980)); “active; positive” (Species/Cell Type: Human lymphocytes, Assay Type: Sister-chromatid exchange (SCE) in vitro, Assay Code: SCL+D, Dose Response: With dose response, Evaluation Type: Evaluation B (Post-1980)); “active; positive” (Species/Cell Type: Human, Assay Type: Sister-chromatid exchange (SCE) in vitro, Assay Code: SC1+D, Dose Response: With dose response, Evaluation Type: Evaluation B (Post-1980)); “inactive; negative” under setting [7].
Regarding `[Cl][Ti]([Cl])[Cl]`, for the setting “Species/Cell Type: Nonhuman, Assay Type: Sister-chromatid exchange (SCE) in vitro, Assay Code: SC2-, Evaluation Type: Evaluation B (Post-1980)”, the mutagenic call was “inactive; negative”.
For the compound `N/C=N/O`, the mutagenic call (Species/Cell Type: Escherichia coli polA (W3119 vs P3478), Assay Type: Rec-assay, DNA effects (bacterial DNA repair), Assay Code: RE1+, Evaluation Type: Evaluation A (Pre-1980)) was “active; positive”.
Consider `[Cl][Ge]([Cl])([Cl])[Cl]`, for which the mutagenic call (Species/Cell Type: Bacillus subtilis (H17 vs M45), Assay Type: Rec-assay, spot test, DNA effects (bacterial DNA repair), Assay Code: REW+, Evaluation Type: Evaluation A (Pre-1980)) was “active; positive”.
As to `Cc1c2ccccc2cc2ccc3ccccc3c12`, the mutagenic call (Species/Cell Type: Nonhuman, Assay Type: Sister-chromatid exchange (SCE) in vitro, Assay Code: SC2+D, Dose Response: With dose response, Evaluation Type: Evaluation B (Post-1980)) was “active; positive” and the mutagenic call under setting [8] was “active; positive”.
On to `COc1ccc2c(ccc3c4c(ccc32)C(C)=CC4)c1`, for which, under setting [8], the mutagenic call is “active; positive”.
In the case of `CC1=C(/C=C/C(C)=C/C=C/C(C)=C/C=C/C=C(C)/C=C/C=C(C)/C=C/C2=C(C)CCCC2(C)C)C(C)(C)CCC1`, the mutagenic call is “no conclusion” under setting [6] and “no conclusion” (Species/Cell Type: Mammalian polychromatic erythrocytes, Assay Type: Micronucleus test, chromosome aberrations, Assay Code: MNTT, Evaluation Type: Evaluation B (Post-1980)).
Take `CCSc1nc2c(c(=O)n(C)c(=O)n2C)n1C`: the mutagenic call (Species/Cell Type: Allium cepa, Assay Type: Chromosome aberrations, Assay Code: ALC+D, Dose Response: With dose response, Evaluation Type: Evaluation A (Pre-1980)) is “active; positive”.
Consider `COc1cc2c3c(cc(C)c2c2ccccc12)C(=O)CC3`, for which the mutagenic call under setting [8] was “active; positive”.
As to `CC(=O)Nc1ccc(O)cc1`, the mutagenic call by setting is: (Species/Cell Type: Human lymphocytes, Assay Type: Sister-chromatid exchange (SCE) in vitro, Assay Code: SCL-, Evaluation Type: Evaluation B (Post-1980)) “inactive; negative”; under setting [3], “no conclusion”.
Turning to `O=C(O)c1ccc([N+](=O)[O-])cc1`, the mutagenic call (Species/Cell Type: Salmonella typhimurium, Assay Type: Forward and reverse gene mutation, host-mediated assay, Assay Code: HMA-, Evaluation Type: Evaluation A (Pre-1980)) was “inactive; negative”.
